Consider two compounds from ChEMBL document CHEMBL1201862, “PubChem BioAssay data set” (2004).

Common to all, as to format: functional
Assay [1] addresses Aurora kinase B (Homo sapiens, UniProt Q96GD4).
The target in assay [2] is LIM domain kinase 1 (Homo sapiens, UniProt P53667). In words: Navigating the Kinome. Panel member name: LIMK1.
Assay [3] addresses Dual specificity tyrosine-phosphorylation-regulated kinase 1B (Homo sapiens, UniProt Q9Y463). In words: Navigating the Kinome. Panel member name: DYRK1B.
Assay [4] concerns the target Serine/threonine-protein kinase D3 (Homo sapiens, UniProt O94806).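 Also: determined within a kinase panel screen, with PRKCN as the panel member.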
For assay [5], the target named is Serine/threonine-protein kinase PAK 4 (Homo sapiens, UniProt O96013).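 Also: value obtained within a kinome profiling panel in which PAK4 was one of the panel members.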
Assay [6] deals with Dual specificity protein kinase CLK4 (Homo sapiens, UniProt Q9HAZ1).
Assay [7] addresses Glycogen synthase kinase-3 alpha (Homo sapiens, UniProt P49840).
Assay [8] deals with Calcium/calmodulin-dependent protein kinase type II subunit alpha (Homo sapiens, UniProt Q9UQM7). Description: Navigating the Kinome. Panel member name: CAMK2A.
The target in assay [9] is Dual specificity protein kinase CLK2 (Homo sapiens, UniProt P49760).
Assay [10] has as its target Fibroblast growth factor receptor 1 (Homo sapiens, UniProt P11362).
Assay [11] has as its target Cyclin-dependent kinase 7 (Homo sapiens, UniProt P50613).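 Also: value comes from a kinome-wide kinase profiling panel in which CDK7 is one member.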
Assay [12] deals with Dual specificity tyrosine-phosphorylation-regulated kinase 1A (Homo sapiens, UniProt Q13627).
The target of assay [13] is Casein kinase I isoform alpha (Homo sapiens, UniProt P48729).
Assay [14] has as its target Mitogen-activated protein kinase 14 (Homo sapiens, UniProt Q16539).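 Also: part of a kinome-wide panel, MAPK14 entry.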
Assay [15] addresses Tyrosine-protein kinase JAK3 (Homo sapiens, UniProt P52333).
Assay [16] has as its target G protein-coupled receptor kinase 5 (Homo sapiens, UniProt P34947). Description: Navigating the Kinome. Panel member name: GPRK5.
In assay [17] the target is Activin receptor type-1 (Homo sapiens, UniProt Q04771). Description: Navigating the Kinome. Panel member name: ACVR1.
Assay [18] concerns the target DNA dC->dU-editing enzyme APOBEC-3A (Homo sapiens, UniProt P31941). In words: SAR analysis of small molecule inhibitors of APOBEC3A DNA Deaminase via a fluorescence-based single-stranded DNA deaminase assay - Set 2. The conditions noted are these: read-out: IC50_Mean.
Assay [19] deals with DNA dC->dU-editing enzyme APOBEC-3G (Homo sapiens, UniProt Q9HC16). Description: SAR analysis of small molecule inhibitors of APOBEC3G DNA Deaminase via a fluorescence-based single-stranded DNA deaminase assay - Set 2. The conditions noted are these: read-out: IC50_Mean.

Calls of active or inactive are those of the source.

What is called Ki is a dissociation constant, usually derived from enzyme kinetics or from competition with a known ligand.

Sequence of Dual specificity tyrosine-phosphorylation-regulated kinase 1B (Q9Y463 whole entry): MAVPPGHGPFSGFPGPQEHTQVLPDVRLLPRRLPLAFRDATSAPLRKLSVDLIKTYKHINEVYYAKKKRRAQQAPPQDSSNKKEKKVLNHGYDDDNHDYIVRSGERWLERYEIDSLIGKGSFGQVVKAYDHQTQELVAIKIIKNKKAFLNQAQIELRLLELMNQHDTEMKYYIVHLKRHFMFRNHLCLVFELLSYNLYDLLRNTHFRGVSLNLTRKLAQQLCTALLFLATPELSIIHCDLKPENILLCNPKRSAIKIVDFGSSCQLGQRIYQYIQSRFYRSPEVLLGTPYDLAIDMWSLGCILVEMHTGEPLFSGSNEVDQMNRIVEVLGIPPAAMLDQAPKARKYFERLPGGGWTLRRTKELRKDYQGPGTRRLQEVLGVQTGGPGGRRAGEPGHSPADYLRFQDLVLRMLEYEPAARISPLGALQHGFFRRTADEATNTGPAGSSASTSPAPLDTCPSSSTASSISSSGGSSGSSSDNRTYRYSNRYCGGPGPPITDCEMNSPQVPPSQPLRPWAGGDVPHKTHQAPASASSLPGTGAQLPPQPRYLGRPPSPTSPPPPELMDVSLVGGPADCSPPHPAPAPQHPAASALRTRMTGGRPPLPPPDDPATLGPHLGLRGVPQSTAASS
Sequence of Fibroblast growth factor receptor 1 (P11362 whole entry): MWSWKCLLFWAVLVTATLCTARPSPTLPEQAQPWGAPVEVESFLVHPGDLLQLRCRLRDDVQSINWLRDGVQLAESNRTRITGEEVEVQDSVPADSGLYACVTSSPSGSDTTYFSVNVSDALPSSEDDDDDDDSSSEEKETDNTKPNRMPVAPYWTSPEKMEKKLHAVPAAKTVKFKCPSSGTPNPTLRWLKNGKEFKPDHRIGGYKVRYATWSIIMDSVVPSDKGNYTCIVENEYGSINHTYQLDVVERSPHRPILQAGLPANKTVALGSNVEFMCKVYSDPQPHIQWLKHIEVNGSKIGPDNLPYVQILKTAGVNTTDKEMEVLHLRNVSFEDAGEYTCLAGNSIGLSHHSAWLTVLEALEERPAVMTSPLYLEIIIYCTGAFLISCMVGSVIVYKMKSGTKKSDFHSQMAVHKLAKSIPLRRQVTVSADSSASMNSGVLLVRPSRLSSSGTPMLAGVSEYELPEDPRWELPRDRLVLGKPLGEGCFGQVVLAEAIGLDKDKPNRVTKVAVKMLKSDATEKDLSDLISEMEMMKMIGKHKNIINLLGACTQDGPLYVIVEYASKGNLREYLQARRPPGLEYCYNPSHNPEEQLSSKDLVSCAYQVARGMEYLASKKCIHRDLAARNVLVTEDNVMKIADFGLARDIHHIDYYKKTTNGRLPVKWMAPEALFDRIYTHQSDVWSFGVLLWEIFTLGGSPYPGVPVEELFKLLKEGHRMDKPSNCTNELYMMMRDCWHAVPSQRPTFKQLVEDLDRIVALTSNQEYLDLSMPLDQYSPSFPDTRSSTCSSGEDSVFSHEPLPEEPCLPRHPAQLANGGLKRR
Sequence of Calcium/calmodulin-dependent protein kinase type II subunit alpha (Q9UQM7 whole entry): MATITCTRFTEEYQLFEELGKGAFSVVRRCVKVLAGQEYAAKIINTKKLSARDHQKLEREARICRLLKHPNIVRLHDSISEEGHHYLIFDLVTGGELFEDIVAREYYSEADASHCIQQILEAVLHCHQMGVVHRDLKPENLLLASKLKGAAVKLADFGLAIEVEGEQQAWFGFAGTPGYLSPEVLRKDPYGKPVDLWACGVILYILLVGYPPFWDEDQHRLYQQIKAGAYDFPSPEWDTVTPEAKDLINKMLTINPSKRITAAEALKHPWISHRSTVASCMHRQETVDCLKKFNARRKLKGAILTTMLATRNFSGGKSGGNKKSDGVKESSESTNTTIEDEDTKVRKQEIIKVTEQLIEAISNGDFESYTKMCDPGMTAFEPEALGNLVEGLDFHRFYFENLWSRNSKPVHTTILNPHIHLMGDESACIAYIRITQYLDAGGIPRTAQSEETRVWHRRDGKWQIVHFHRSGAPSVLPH
Sequence of Cyclin-dependent kinase 7 (P50613 whole entry): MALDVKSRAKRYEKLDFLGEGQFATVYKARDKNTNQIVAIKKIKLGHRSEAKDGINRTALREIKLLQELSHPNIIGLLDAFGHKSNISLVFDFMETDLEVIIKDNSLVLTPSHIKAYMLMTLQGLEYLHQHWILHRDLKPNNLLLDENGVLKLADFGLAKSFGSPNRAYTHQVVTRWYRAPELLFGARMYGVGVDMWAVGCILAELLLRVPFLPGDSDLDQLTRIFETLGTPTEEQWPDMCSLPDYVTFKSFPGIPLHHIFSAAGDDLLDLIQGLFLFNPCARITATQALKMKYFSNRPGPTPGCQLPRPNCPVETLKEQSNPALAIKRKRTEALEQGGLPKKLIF
Sequence of Dual specificity protein kinase CLK2 (P49760 whole entry): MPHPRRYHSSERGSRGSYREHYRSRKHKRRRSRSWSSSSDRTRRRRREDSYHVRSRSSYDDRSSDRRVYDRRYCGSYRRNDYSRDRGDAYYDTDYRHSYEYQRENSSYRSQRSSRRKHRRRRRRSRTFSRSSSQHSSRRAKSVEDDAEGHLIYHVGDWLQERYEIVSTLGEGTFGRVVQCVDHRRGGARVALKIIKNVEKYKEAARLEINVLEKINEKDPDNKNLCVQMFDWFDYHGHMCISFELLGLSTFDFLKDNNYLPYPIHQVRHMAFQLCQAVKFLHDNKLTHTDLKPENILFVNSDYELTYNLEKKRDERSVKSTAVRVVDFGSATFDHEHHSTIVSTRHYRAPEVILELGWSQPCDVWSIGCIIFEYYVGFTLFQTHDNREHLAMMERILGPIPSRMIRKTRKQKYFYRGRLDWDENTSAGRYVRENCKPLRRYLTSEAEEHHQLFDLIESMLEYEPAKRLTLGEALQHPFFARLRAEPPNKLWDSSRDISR
Sequence of Serine/threonine-protein kinase D3 (O94806 whole entry): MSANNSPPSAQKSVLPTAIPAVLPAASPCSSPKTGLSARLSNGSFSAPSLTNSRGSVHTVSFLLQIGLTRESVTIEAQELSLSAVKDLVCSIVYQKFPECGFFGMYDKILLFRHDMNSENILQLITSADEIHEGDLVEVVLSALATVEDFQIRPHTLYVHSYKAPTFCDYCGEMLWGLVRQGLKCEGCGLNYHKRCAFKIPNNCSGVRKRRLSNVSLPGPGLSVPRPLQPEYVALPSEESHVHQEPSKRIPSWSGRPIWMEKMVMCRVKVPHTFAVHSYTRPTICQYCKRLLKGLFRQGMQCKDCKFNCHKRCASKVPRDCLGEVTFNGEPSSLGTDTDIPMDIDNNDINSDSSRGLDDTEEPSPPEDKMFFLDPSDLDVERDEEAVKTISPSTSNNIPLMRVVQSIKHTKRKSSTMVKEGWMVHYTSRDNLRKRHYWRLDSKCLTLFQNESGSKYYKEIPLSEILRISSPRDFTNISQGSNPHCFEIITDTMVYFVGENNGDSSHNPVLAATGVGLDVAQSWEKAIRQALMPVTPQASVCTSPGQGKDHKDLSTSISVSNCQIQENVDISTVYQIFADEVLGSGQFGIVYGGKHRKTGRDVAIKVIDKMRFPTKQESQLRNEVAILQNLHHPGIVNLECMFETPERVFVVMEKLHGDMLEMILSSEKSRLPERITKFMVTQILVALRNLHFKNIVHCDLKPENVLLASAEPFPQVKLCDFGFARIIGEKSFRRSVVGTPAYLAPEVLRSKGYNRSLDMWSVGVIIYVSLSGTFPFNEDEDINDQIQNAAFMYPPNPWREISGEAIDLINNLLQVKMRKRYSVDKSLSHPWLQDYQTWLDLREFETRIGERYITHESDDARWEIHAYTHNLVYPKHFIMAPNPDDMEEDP
Sequence of LIM domain kinase 1 (P53667 whole entry, the tested form may be a part): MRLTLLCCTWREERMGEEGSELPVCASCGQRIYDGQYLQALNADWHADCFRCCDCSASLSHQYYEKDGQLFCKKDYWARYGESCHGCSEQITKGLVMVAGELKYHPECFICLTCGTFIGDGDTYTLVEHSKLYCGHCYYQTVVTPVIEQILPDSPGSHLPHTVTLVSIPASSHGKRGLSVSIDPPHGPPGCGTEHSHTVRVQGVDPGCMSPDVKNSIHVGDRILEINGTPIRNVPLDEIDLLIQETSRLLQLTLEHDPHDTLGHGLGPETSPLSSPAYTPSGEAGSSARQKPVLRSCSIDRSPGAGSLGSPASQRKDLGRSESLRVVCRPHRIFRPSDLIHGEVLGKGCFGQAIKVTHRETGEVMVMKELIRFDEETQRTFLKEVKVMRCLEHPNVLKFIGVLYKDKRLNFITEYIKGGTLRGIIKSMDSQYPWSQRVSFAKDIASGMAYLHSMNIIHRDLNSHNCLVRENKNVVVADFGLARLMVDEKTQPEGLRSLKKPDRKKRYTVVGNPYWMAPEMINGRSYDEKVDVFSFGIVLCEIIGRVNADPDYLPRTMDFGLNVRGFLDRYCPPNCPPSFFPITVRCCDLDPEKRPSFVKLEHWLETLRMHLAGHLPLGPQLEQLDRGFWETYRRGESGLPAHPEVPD
Sequence of DNA dC->dU-editing enzyme APOBEC-3A (P31941 whole entry): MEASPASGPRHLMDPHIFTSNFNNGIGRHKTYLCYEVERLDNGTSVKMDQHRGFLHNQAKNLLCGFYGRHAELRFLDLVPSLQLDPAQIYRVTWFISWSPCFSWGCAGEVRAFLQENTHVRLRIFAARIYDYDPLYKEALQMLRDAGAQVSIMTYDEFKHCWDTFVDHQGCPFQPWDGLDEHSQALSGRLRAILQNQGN
Sequence of Activin receptor type-1 (Q04771 whole entry): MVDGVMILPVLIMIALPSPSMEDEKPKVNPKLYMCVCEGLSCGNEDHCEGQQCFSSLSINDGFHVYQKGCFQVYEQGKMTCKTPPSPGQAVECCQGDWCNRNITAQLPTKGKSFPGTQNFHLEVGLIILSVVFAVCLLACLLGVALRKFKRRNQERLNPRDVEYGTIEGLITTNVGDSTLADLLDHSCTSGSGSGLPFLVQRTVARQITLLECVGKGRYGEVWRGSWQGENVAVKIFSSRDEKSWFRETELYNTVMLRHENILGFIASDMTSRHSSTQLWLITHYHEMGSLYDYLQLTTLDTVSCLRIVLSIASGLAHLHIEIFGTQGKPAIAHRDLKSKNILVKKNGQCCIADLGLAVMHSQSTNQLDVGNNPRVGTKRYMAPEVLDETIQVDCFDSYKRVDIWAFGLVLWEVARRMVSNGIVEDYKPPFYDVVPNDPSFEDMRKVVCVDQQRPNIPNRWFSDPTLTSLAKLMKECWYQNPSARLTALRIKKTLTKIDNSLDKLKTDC

Consider `Nc1ncnc2nc3ccccc3n12`, for which the Ki in [1] is > 79.4 µM (inactive); in assay [2] it was 63.1 µM (active); in assay [3], 20 µM (active); in assay [4], > 79.4 µM (inactive); in assay [5], > 100 µM (inactive); in [6], 7.94 µM (active). Also, the Ki was > 79.4 µM (inactive) in [7]; > 79.4 µM (inactive) in assay [8]; 39.8 µM (active) in assay [9]; > 79.4 µM (inactive) in assay [10]; > 79.4 µM (inactive) in [11]; 39.8 µM (active) in assay [12]. For the same compound, the Ki was 20 µM (active) in assay [13]; > 79.4 µM (inactive) in [14]; > 100 µM (inactive) in [15]; > 79.4 µM (inactive) in [16]; > 79.4 µM (inactive) in assay [17].

Regarding `CCc1nc2sc3c(c2c2nnc(SC)n12)CCC(C)C3` (centres undefined), the IC50 in [18] and in assay [19] was > 99 µM (inactive) in each case.
